From publication PMC7284416, “The Product Specificities of Maize Terpene Synthases TPS4 and TPS10 Are Determined Both by Active Site Amino Acids and Residues Adjacent to the Active Site” (Plants, 2020) come the findings set out here.

Data set [1] deals with T1, TPS4 (tps4-B73) (Zea mays, UniProt Q6JD73).
T1 construct: expressed in E. coli BL21(DE3) from pHIS8-3, N-terminal His8 tag kept, Ni-NTA purified; forward primer starts the ORF at codons for SSTFHPSL, native C-terminus FVEPIPE
T1 sequence (Q6JD73 21-554): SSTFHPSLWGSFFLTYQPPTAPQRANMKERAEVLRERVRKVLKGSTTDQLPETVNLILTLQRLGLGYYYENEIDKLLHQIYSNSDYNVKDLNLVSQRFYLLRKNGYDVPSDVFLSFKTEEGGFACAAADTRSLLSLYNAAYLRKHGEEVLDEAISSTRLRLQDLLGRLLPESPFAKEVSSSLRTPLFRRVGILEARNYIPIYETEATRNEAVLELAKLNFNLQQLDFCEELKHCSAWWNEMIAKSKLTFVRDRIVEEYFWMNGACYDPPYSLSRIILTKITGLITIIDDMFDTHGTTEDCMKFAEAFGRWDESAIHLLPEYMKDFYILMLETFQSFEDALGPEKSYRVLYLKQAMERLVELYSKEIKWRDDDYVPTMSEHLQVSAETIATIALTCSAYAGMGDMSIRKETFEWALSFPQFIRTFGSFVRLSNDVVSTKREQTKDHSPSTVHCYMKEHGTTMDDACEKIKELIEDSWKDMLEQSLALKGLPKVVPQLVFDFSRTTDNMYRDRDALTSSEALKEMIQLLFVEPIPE
Briefly: [[…]-3H]FPP turnover, pentane-extracted products, scintillation counting. The data set is classed as biochemical. Conditions: 10 mM MgCl2, 10 mM Mopso pH 7.0, 1 mM DTT, 10% glycerol, 30 °C; labelled compound; read-out: TPS4-c17.

A further data set has as its target T2, TPS10 (tps10-B73) (Zea mays, UniProt Q2NM15).
T2 construct: expressed in E. coli BL21(DE3) from pHIS8-3 (NcoI/EcoRI), His tag kept, Ni-NTA purified; printed forward primer codes for MPPPS at the N-terminus
T2 sequence (Q2NM15 1-533): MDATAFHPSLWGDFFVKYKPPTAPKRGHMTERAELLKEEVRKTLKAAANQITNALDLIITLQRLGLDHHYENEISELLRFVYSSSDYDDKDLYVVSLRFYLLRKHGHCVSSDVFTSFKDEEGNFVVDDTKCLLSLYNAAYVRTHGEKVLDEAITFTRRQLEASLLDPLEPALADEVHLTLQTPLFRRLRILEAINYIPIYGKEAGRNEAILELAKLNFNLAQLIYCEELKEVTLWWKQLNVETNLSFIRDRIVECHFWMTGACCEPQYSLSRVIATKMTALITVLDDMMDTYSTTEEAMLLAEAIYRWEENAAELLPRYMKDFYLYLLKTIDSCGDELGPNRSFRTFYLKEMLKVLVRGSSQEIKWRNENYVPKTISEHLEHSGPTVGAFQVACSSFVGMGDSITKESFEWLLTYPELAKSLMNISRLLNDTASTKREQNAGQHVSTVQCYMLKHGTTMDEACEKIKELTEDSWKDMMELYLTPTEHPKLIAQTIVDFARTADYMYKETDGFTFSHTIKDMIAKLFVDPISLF
Described as above. The data set is classed as biochemical. Conditions: 10 mM MgCl2, 10 mM Mopso pH 7.0, 1 mM DTT, 10% glycerol, 30 °C; labelled compound.

Data set [2] has as its target T3, TPS4 (tps4-B73) (Zea mays, UniProt Q6JD73, I411F/R442K, form not given).
T3 construct: expressed in E. coli BL21(DE3) from pHIS8-3, N-terminal His8 tag kept, Ni-NTA purified; forward primer starts the ORF at codons for SSTFHPSL, native C-terminus FVEPIPE
T3 sequence (Q6JD73 21-554 I411F/R442K): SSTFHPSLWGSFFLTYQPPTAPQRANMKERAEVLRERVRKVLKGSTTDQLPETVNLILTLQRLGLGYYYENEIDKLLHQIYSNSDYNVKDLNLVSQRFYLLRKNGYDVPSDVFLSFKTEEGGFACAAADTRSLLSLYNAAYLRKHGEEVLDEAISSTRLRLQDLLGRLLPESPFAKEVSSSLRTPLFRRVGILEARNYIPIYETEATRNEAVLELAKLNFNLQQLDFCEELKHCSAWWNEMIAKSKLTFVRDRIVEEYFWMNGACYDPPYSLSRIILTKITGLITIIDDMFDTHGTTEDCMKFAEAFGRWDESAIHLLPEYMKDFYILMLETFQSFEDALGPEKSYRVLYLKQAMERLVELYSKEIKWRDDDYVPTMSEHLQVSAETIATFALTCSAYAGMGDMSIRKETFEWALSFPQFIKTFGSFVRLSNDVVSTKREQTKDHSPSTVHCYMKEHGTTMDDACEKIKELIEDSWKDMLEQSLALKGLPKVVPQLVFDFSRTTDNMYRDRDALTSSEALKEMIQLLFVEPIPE
Described as above. The data set is classed as biochemical. Conditions: 10 mM MgCl2, 10 mM Mopso pH 7.0, 1 mM DTT, 10% glycerol, 30 °C; labelled compound; read-out: TPS4-c17 R442K + I411F.

Substrate in the data set “purified protein”: CC(C)=CCC/C(C)=C/CC/C(C)=C/CO[P@@](=O)(O)OP(=O)(O)O
Briefly: purified protein. Conditions: 10 mM MgCl2, 10 mM Mopso pH 7.0, 1 mM DTT, 10% glycerol, 30 °C, labelled compound. The class given is biochemical, Zea mays.

`CC(C)=CCC/C(C)=C/CC/C(C)=C/CO[P@@](=O)(O)OP(=O)(O)O` [(E,E)-farnesyl diphosphate]: the Km on TPS4 (tps4-B73) [1] was determined as 2.1 ± 0.3 µM; on TPS10 (tps10-B73), 3.2 ± 0.5 µM; at TPS4 (tps4-B73) [2], 2.3 ± 0.3 µM.

B1: TPS4 (tps4-B73) (Zea mays) (protein)
chain: SSTFHPSLWGSFFLTYQPPTAPQRANMKERAEVLRERVRKVLKGSTTDQLPETVNLILTLQRLGLGYYYENEIDKLLHQIYSNSDYNVKDLNLVSQRFYLLRKNGYDVPSDVFLSFKTEEGGFACAAADTRSLLSLYNAAYLRKHGEEVLDEAISSTRLRLQDLLGRLLPESPFAKEVSSSLRTPLFRRVGILEARNYIPIYETEATRNEAVLELAKLNFNLQQLDFCEELKHCSAWWNEMIAKSKLTFVRDRIVEEYFWMNGACYDPPYSLSRIILTKITGLITIIDDMFDTHGTTEDCMKFAEAFGRWDESAIHLLPEYMKDFYILMLETFQSFEDALGPEKSYRVLYLKQAMERLVELYSKEIKWRDDDYVPTMSEHLQVSAETIATIALTCSAYAGMGDMSIRKETFEWALSFPQFIRTFGSFVRLSNDVVSTKREQTKDHSPSTVHCYMKEHGTTMDDACEKIKELIEDSWKDMLEQSLALKGLPKVVPQLVFDFSRTTDNMYRDRDALTSSEALKEMIQLLFVEPIPE
notes: expressed in E. coli BL21(DE3) from pHIS8-3, N-terminal His8 tag kept, Ni-NTA purified; forward primer starts the ORF at codons for SSTFHPSL, native C-terminus FVEPIPE
Consider B1, for which, in the data set “purified protein”, the Km stood at 3.8 ± 0.5 µM and the kcat stood at 0.0105 ± 0.0006 s⁻¹.

A word on the kcat: it is the number of substrate molecules converted per active site and unit of time at saturation.
